Measurements from PubChem BioAssay (NCI).
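In this assay, cells in 96-well plates receive the compound at five concentrations for 48 hours. Endpoints are linearly interpolated between the surrounding concentrations. TGI: total growth inhibition.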

Tests used:
Assay in all cases: NCI tumour cell line growth inhibition, 48 h
UACC-257 melanoma = test system: UACC-257 melanoma
MCF7 breast = test system: MCF7 breast
SN12C renal = test system: SN12C renal
SF-295 CNS = test system: SF-295 CNS
NCI-H460 lung = test system: NCI-H460 lung
U251 CNS = test system: U251 CNS
HCT-15 colon = test system: HCT-15 colon
NCI/ADR-RES ovarian = test system: NCI/ADR-RES ovarian
786-0 renal = test system: 786-0 renal
OVCAR-5 ovarian = test system: OVCAR-5 ovarian
T-47D breast = test system: T-47D breast
PC-3 prostate = test system: PC-3 prostate
TK-10 renal = test system: TK-10 renal
SK-OV-3 ovarian = test system: SK-OV-3 ovarian
COLO 205 colon = test system: COLO 205 colon
MDA-MB-435 = test system: MDA-MB-435
OVCAR-4 ovarian = test system: OVCAR-4 ovarian
SW-620 colon = test system: SW-620 colon
LOX IMVI melanoma = test system: LOX IMVI melanoma
SK-MEL-2 melanoma = test system: SK-MEL-2 melanoma
DU-145 prostate = test system: DU-145 prostate
HOP-62 NSCLC = test system: HOP-62 NSCLC
MALME-3M melanoma = test system: MALME-3M melanoma
ACHN renal = test system: ACHN renal
OVCAR-3 ovarian = test system: OVCAR-3 ovarian
HS 578T breast = test system: HS 578T breast
EKVX NSCLC = test system: EKVX NSCLC
SR leukemia = test system: SR leukemia
SNB-19 CNS = test system: SNB-19 CNS
HL-60(TB) leukemia = test system: HL-60(TB) leukemia
A498 renal = test system: A498 renal
HT29 colon = test system: HT29 colon
OVCAR-8 ovarian = test system: OVCAR-8 ovarian
CAKI-1 renal = test system: CAKI-1 renal
IGROV1 ovarian = test system: IGROV1 ovarian
NCI-H522 lung = test system: NCI-H522 lung
SF-539 CNS = test system: SF-539 CNS
NCI-H23 lung = test system: NCI-H23 lung
M14 melanoma = test system: M14 melanoma
K-562 leukemia = test system: K-562 leukemia
HCT-116 colon = test system: HCT-116 colon
UACC-62 melanoma = test system: UACC-62 melanoma
NCI-H226 lung = test system: NCI-H226 lung
SK-MEL-28 melanoma = test system: SK-MEL-28 melanoma
KM12 colon = test system: KM12 colon
SNB-75 CNS = test system: SNB-75 CNS
SF-268 CNS = test system: SF-268 CNS
MDA-N = test system: MDA-N
A549 NSCLC = test system: A549 NSCLC
HOP-92 NSCLC = test system: HOP-92 NSCLC
SK-MEL-5 melanoma = test system: SK-MEL-5 melanoma
RPMI-8226 leukemia = test system: RPMI-8226 leukemia
MOLT-4 leukemia = test system: MOLT-4 leukemia
RXF 393 renal = test system: RXF 393 renal
MDA-MB-231 breast = test system: MDA-MB-231 breast
CCRF-CEM leukemia = test system: CCRF-CEM leukemia
UO-31 renal = test system: UO-31 renal
HCC-2998 colon = test system: HCC-2998 colon

`CC1(C)OP(=O)(c2ccccc2)C=C1Sc1ccc([N+](=O)[O-])cc1[N+](=O)[O-]` (stereo not given) was tested, and the TGI (UACC-257 melanoma) was > 100 µM, the TGI (MCF7 breast) was > 100 µM and the TGI (SN12C renal) was > 100 µM. For the same molecule, the TGI (SF-295 CNS) was > 100 µM, the TGI (NCI-H460 lung) was > 100 µM and the TGI (U251 CNS) was > 100 µM. For the same molecule, the TGI (HCT-15 colon) was > 100 µM, the TGI (NCI/ADR-RES ovarian) was > 100 µM and the TGI (786-0 renal) was > 100 µM. The TGI (OVCAR-5 ovarian) was > 100 µM, the TGI (T-47D breast) was > 100 µM and the TGI (PC-3 prostate) was > 100 µM. The TGI (TK-10 renal) was > 100 µM, the TGI (SK-OV-3 ovarian) was > 100 µM and the TGI (COLO 205 colon) was > 100 µM. The TGI (MDA-MB-435) was > 100 µM, the TGI (OVCAR-4 ovarian) was > 100 µM and the TGI (SW-620 colon) was > 100 µM. For the same molecule, the TGI (LOX IMVI melanoma) was > 100 µM, the TGI (SK-MEL-2 melanoma) was > 100 µM and the TGI (DU-145 prostate) was > 100 µM. For the same molecule, the TGI (HOP-62 NSCLC) was > 100 µM, the TGI (MALME-3M melanoma) was > 100 µM and the TGI (ACHN renal) was > 100 µM. The TGI (OVCAR-3 ovarian) was > 100 µM, the TGI (HS 578T breast) was > 100 µM and the TGI (EKVX NSCLC) was > 100 µM. The TGI (SR leukemia) was 42.9 µM, the TGI (SNB-19 CNS) was > 100 µM and the TGI (HL-60(TB) leukemia) was 37.4 µM. The TGI (A498 renal) was > 100 µM, the TGI (HT29 colon) was > 100 µM and the TGI (OVCAR-8 ovarian) was > 100 µM. For the same molecule, the TGI (CAKI-1 renal) was > 100 µM, the TGI (IGROV1 ovarian) was > 100 µM and the TGI (NCI-H522 lung) was 36.6 µM. For the same molecule, the TGI (SF-539 CNS) was > 100 µM, the TGI (NCI-H23 lung) was > 100 µM and the TGI (M14 melanoma) was > 100 µM. The TGI (K-562 leukemia) was 67.3 µM, the TGI (HCT-116 colon) was > 100 µM and the TGI (UACC-62 melanoma) was > 100 µM. The TGI (NCI-H226 lung) was > 100 µM, the TGI (SK-MEL-28 melanoma) was > 100 µM and the TGI (KM12 colon) was > 100 µM. For the same molecule, the TGI (SNB-75 CNS) was > 100 µM, the TGI (SF-268 CNS) was > 100 µM and the TGI (MDA-N) was > 100 µM. The TGI (A549 NSCLC) was > 100 µM, the TGI (HOP-92 NSCLC) was > 100 µM and the TGI (SK-MEL-5 melanoma) was > 100 µM.

`CCS(=O)C(=O)N(O)c1ccc(Cl)cc1` (stereo not given) was tested, and the TGI (UACC-257 melanoma) was 75.8 µM, the TGI (MCF7 breast) was 50.9 µM and the TGI (SN12C renal) was 43 µM. The TGI (SF-295 CNS) was > 100 µM, the TGI (U251 CNS) was 44.6 µM and the TGI (HCT-15 colon) was 68.5 µM. It also gave a TGI (NCI/ADR-RES ovarian) of 81.4 µM, a TGI (RPMI-8226 leukemia) of 20.4 µM and a TGI (786-0 renal) of 64.3 µM. For the same molecule, the TGI (OVCAR-5 ovarian) was > 100 µM, the TGI (T-47D breast) was > 100 µM and the TGI (PC-3 prostate) was > 100 µM. The TGI (TK-10 renal) was > 100 µM, the TGI (SK-OV-3 ovarian) was > 100 µM and the TGI (COLO 205 colon) was > 100 µM. The TGI (MDA-MB-435) was 30 µM, the TGI (OVCAR-4 ovarian) was > 100 µM and the TGI (SW-620 colon) was 46 µM. The TGI (LOX IMVI melanoma) was 53.1 µM, the TGI (SK-MEL-2 melanoma) was 56.7 µM and the TGI (DU-145 prostate) was > 100 µM. For the same molecule, the TGI (HOP-62 NSCLC) was > 100 µM, the TGI (MOLT-4 leukemia) was 25 µM and the TGI (ACHN renal) was 55 µM. The TGI (RXF 393 renal) was 41.6 µM, the TGI (OVCAR-3 ovarian) was > 100 µM and the TGI (HS 578T breast) was > 100 µM. For the same molecule, the TGI (EKVX NSCLC) was > 100 µM, the TGI (SNB-19 CNS) was > 100 µM and the TGI (A498 renal) was > 100 µM. For the same molecule, the TGI (MDA-MB-231 breast) was > 100 µM, the TGI (CAKI-1 renal) was 38.5 µM and the TGI (SF-539 CNS) was 52.8 µM. For the same molecule, the TGI (M14 melanoma) was 35.1 µM, the TGI (K-562 leukemia) was 39.9 µM and the TGI (CCRF-CEM leukemia) was 63.2 µM. For the same molecule, the TGI (HCT-116 colon) was > 100 µM, the TGI (UACC-62 melanoma) was 22.9 µM and the TGI (NCI-H226 lung) was > 100 µM. The TGI (UO-31 renal) was 46.7 µM, the TGI (SK-MEL-28 melanoma) was 35.6 µM and the TGI (HCC-2998 colon) was > 100 µM. For the same molecule, the TGI (KM12 colon) was 47.2 µM, the TGI (SNB-75 CNS) was > 100 µM and the TGI (SF-268 CNS) was 55.4 µM. For the same molecule, the TGI (MDA-N) was 41.4 µM, the TGI (A549 NSCLC) was > 100 µM and the TGI (HOP-92 NSCLC) was > 100 µM. It also gave a TGI (SK-MEL-5 melanoma) of 74.1 µM.
